Source: patent US9409896B2, “Sustained release pharmaceutical compositions comprising an antibacterial agent” (Melinta Therapeutics, Inc., priority 2010, dated 2016)
Converted amounts (≈) assume the structure as drawn. Read-outs that look alike come from different tables or passages of the source.

Legend:
[1] = Polarized light microscopy of drug suspended in buffers with or without sodium chloride; format: physicochemical; conditions: in the presence of chloride ion
Method: The common ion effect was studied using dissolution and microscopic methods. The microscopic method was conducted with drug suspended in water, pH 1.2, pH 4 and pH 6.5 buffers with and without sodium chloride. The dissolution of the drug and its granulations were studied using three different 2-step dissolution methods which entails the following: Method #1: simple 2-step buffers at pH 4 from 0-30 minutes and at pH 6.5 from 30-90 minutes. Method #2: simple 2-step buffers with the presence of chloride ion in both steps. Method #3: simple buffer at pH 4 with presence of chloride ion from 0-30 minutes; and buffer with bile salts and surfactants at pH 6.5 from 30-90 minutes. The two steps represent fed stomach and intestinal conditions, respectively.
Formulation Preparation Bulk drug powders were wet granulated with and without excipients. Granules were dried and sized through a #18 mesh screen. Polarized Microscopic Observation Microscopic test was conducted with drug suspended in water, pH 1.2, 4, and 6.5 buffers with and without sodium chloride. Dissolution Test: Four dissolution media were tested. Results of these tests are shown in line-graph formats in FIGS. 3-7. Bulk drug powders were wet granulated with and without excipients. […]
An in-vivo dog study was conducted with beagle dogs (wt=12 kg, n=3). […] Serial of plasma samples were collected, extracted, and analyzed by LC/MS/MS. […]

[2] = Monkey oral bioavailability; conditions: in vivo, at 20 mg/kg dose
[3] = Caco-2 permeability; format: in vitro ADME; conditions: human
[4] = pKa of model compound; format: physicochemical
[5] = Solubility; format: physicochemical
[6] = Food effect; conditions: in vivo
[7] = log P of model compound; format: physicochemical

bioavailability [2]: 15%
Papp [3]: 0.5 ×10⁻⁶ cm/s
pKa [4]: 6.8
solubility ([5]; at pH 6.8, read-out: Intrinsic solubility): 10 µg/mL (≈ 22.8 µM)
solubility ([5]; water, pH 4, water, read-out: Solubility of salt in water): 2600 µg/mL
solubility ([5]; water, pH 5.4, water, read-out: Solubility of salt in water): 200 µg/mL
solubility ([5]; water, pH 6.5, water, read-out: Solubility of salt in water): 60 µg/mL
Positive food effect [6]: 4 ×
logP [7]: 0.7
Structure (SMILES): CC(=O)NC[C@H]1CN(c2ccc(-c3ccc(CNCc4cnn[nH]4)cc3)c(F)c2)C(=O)O1 [model compound, N-[3-(2-fluoro-4′-{[(3H-[1,2,3]triazol-4-ylmethyl)-amino]-methyl}-biphenyl-4-yl)-2-oxo-oxazolidin-5-(S)-ylmethyl]-acetamide]
microscopic observation of aggregates [1]: formed aggregates in the presence of chloride ion
